Measured values taken from patent publication US7482137B2, “Hybrid glycosylated products and their production and use” (Biotica Technology Limited, priority 2000, dated 2009).

Test system: Bacillus subtilis ATCC 6633
Assay: Filter disc bioassay, zones of inhibition in B. subtilis lawn
Format: cell-based
Conditions: 10-fold dilution series of 1.1 mg in 200 μl methanol, 10 μl per filter disc; indicator strain Bacillus subtilis ATCC 6633
Protocol: Cosmid no 7 which has been isolated from a Streptomyces fradiae cosmid library, was kindly provided by J. Corts. E. coli transformants were selected with 100 ug/ml ampicillin. The Saccharopolyspora erythraea NRRL 2338-red variant strain (Hessler et al., Appl. Microbiol. Biotechnol. (1997) 47:398-404) was kindly provided by J. M. Weber and was routinely maintained on M1-102 agar (Kaneda et al. J. Biol. Chem. (1962) 237:322-327), R2T20 (Yamamoto et al. J. Antibiot. (1986) 34:1304-1313), R2T2 (same as R2T (Weber et al. J. Bacterial. (1985)164:425-433), but without peptone), and TSB (Difco) for liquid cultures at 30° C. Bacillus subtilis ATCC 6633 was used in bioassays to assess erythromycin production as described (Gaisser et al. (1997), supra). […] Both metabolites (10 μl of 10 mM stock solution) were applied to agar wells cut into the S. erythraea lawn and incubated at 30° C. overnight as described (Gaisser et al. (1997) supra) and the development of zones of inhibition in the B. subtilis lawn around S. erythraea colonies was assessed. […]
Bacillus subtilis ATCC 6633 was used in bioassays as described previously (Gaisser et al., 1998). […] The development of zones of inhibition in the B. subtilis lawn was assessed.

Structure (SMILES): CCC1OC(=O)C(C)C(OC2OC(C)C(O)C(O)C2OC)C(C)C(OC2OC(C)CC(N(C)C)C2O)C(C)(O)CC(C)C(=O)C(C)C(O)C1C (stereo not shown) [3-O-(2′-O-methylrhamnosyl)erythromycin D]
- bioactivity, fold less compared to erythromycin A (size of the halos around filter discs): about 100 fold
